Our source for the IC50 values is patent US20240299385A1 (ReWind Therapeutics NV, priority 2021, published 2024).

pIC50: −log10 of the molar value. Bounds are passed on as bounds.

This experiment deals with T1, human GPR17 receptor (Homo sapiens, UniProt Q13304).
T1 construct: host or cells: HEK-293
T1 sequence (Q13304 whole entry): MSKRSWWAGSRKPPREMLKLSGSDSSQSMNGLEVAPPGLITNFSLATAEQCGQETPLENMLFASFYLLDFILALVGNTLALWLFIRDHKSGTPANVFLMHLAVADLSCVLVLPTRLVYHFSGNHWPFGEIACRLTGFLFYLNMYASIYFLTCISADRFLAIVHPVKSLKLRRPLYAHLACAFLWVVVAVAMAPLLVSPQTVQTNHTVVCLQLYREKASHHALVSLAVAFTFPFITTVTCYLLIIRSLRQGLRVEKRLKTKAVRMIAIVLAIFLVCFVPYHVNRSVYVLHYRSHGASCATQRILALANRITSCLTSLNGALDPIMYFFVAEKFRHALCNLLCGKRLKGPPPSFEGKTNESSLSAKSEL
In words: Calcium mobilization functional assay (Fluo-8, FLIPR TETRA) in HEK-293 hGPR17 (Gα-q assay). The format is cell-based. To be noted: antagonism of MDL29,951 (~EC80) induced Ca2+ signal; cell line (HEK-293 hGPR17 or HEK-293 Suchi5 hGPR17) not given. Summed up:
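Fluo-8-loaded HEK-293 hGPR17 cells (60 min dye loading, room temperature) were preincubated with compound for twenty minutes, then challenged with agonist MDL29,951 at ~EC80, 500 nM. Intracellular calcium release via Gα-q was recorded as FLIPR fluorescence for a further 2 minutes; compounds tested in duplicate.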
For orientation: Calcium assays in cells follow changes in intracellular calcium, usually with a dye or a luminescent sensor.
What is called pIC50 is the IC50 on a negative log10 scale, so that one unit is a factor of ten. As for `Cc1ccc(Cc2c[nH]cc2S(=O)(=O)Nc2ccc(C#N)cc2F)s1` [Cpd 486, N-(4-cyano-2-fluorophenyl)-4-[(5-methylthiophen-2-yl)methyl]-1H-pyrrole-3-sulfonamide], the negative-log IC50 (pIC50) was 5.30 to 6.30.

For `COc1ccc(Cl)cc1-c1cc(S(=O)(=O)Nc2ccc(C#N)cc2F)c[nH]1` [Cpd 488, 5-(5-chloro-2-methoxyphenyl)-N-(4-cyano-2-fluorophenyl)-1H-pyrrole-3-sulfonamide], the pIC50 is 5.30 to 6.30.

Consider `N#Cc1ccc(NS(=O)(=O)c2c[nH]c(-c3c(F)cc(F)cc3F)c2)c(F)c1` [Cpd 489, N-(4-cyano-2-fluorophenyl)-5-(2,4,6-trifluorophenyl)-1H-pyrrole-3-sulfonamide], for which the pIC50 was over 6.30.

As for `CC(=O)c1cccc(Cc2c[nH]cc2S(=O)(=O)Nc2ccc(C#N)cc2F)c1` [Cpd 490, 4-[(3-acetylphenyl)methyl]-N-(4-cyano-2-fluorophenyl)-1H-pyrrole-3-sulfonamide], the pIC50 was 4.30 to 5.30.

For the compound `N#Cc1ccc(NS(=O)(=O)c2c[nH]c(Cc3ccccn3)c2)c(F)c1` [Cpd 491, N-(4-cyano-2-fluorophenyl)-5-(pyridin-2-ylmethyl)-1H-pyrrole-3-sulfonamide], the pIC50 is 4.30 to 5.30.

As for `N#Cc1cc(F)c(NS(=O)(=O)c2c[nH]c(-c3c(F)cc(F)cc3F)c2)cc1Cl` [Cpd 492, N-(5-chloro-4-cyano-2-fluorophenyl)-5-(2,4,6-trifluorophenyl)-1H-pyrrole-3-sulfonamide], the pIC50 is 5.30 to 6.30.

In the case of `O=S(=O)(Nc1nc(F)c(OCCF)cc1F)c1c[nH]c(-c2ccccc2)c1` [Cpd 494, N-[3,6-difluoro-5-(2-fluoroethoxy)pyridin-2-yl]-5-phenyl-1H-pyrrole-3-sulfonamide], the pIC50 was over 6.30.

Consider `Cc1cc(NS(=O)(=O)c2c[nH]c(-c3c(F)cc(F)cc3F)c2)c(F)cc1C#N` [Cpd 495, N-(4-cyano-2-fluoro-5-methylphenyl)-5-(2,4,6-trifluorophenyl)-1H-pyrrole-3-sulfonamide], for which the pIC50 is 5.30 to 6.30.

As for `O=S(=O)(Nc1cc(F)c(OCC(F)F)cc1F)c1c[nH]cc1-c1cccc(F)c1` [Cpd 496, N-[4-(2,2-difluoroethoxy)-2,5-difluorophenyl]-4-(3-fluorophenyl)-1H-pyrrole-3-sulfonamide], the pIC50 is 5.30 to 6.30.

As to `N#Cc1cc(F)c(NS(=O)(=O)c2c[nH]cc2-c2cccc(F)c2)cc1F` [Cpd 497, N-(4-cyano-2,5-difluorophenyl)-4-(3-fluorophenyl)-1H-pyrrole-3-sulfonamide], the pIC50 is over 6.30.

Consider `Cc1nc(-c2cc(S(=O)(=O)Nc3ccc(C#N)cc3F)c[nH]2)ccc1F` [Cpd 498, N-(4-cyano-2-fluorophenyl)-5-(5-fluoro-6-methylpyridin-2-yl)-1H-pyrrole-3-sulfonamide], for which the pIC50 is 5.30 to 6.30.

As to `N#Cc1ccc(NS(=O)(=O)c2c[nH]c(-c3ccc(Cl)cn3)c2)c(F)c1` [Cpd 499, 5-(5-chloropyridin-2-yl)-N-(4-cyano-2-fluorophenyl)-1H-pyrrole-3-sulfonamide], the pIC50 was 4.30 to 5.30.

Regarding `Cc1ccc(-c2cc(S(=O)(=O)Nc3ccc(C#N)cc3F)c[nH]2)nc1` [Cpd 500, N-(4-cyano-2-fluorophenyl)-5-(5-methylpyridin-2-yl)-1H-pyrrole-3-sulfonamide], the pIC50 was 4.30 to 5.30.

For the compound `O=S(=O)(Nc1nc(F)c(OCCF)cc1F)c1c[nH]cc1Cc1ccccc1` [Cpd 501, 4-benzyl-N-[3,6-difluoro-5-(2-fluoroethoxy)pyridin-2-yl]-1H-pyrrole-3-sulfonamide], the pIC50 was 5.30 to 6.30.

In the case of `N#Cc1ccc(NS(=O)(=O)c2c[nH]c(-c3cccc(F)n3)c2)c(F)c1` [Cpd 502, N-(4-cyano-2-fluorophenyl)-5-(6-fluoropyridin-2-yl)-1H-pyrrole-3-sulfonamide], the pIC50 was over 6.30.

Turning to `Cc1ccnc(-c2cc(S(=O)(=O)Nc3ccc(C#N)cc3F)c[nH]2)c1` [Cpd 503, N-(4-cyano-2-fluorophenyl)-5-(4-methylpyridin-2-yl)-1H-pyrrole-3-sulfonamide], the pIC50 was 5.30 to 6.30.

Take `Cc1cccc(-c2cc(S(=O)(=O)Nc3ccc(C#N)cc3F)c[nH]2)n1` [Cpd 504, N-(4-cyano-2-fluorophenyl)-5-(6-methylpyridin-2-yl)-1H-pyrrole-3-sulfonamide]: the pIC50 is over 6.30.

Turning to `O=C1C=C(c2cc(S(=O)(=O)Nc3cc(F)c(C(F)(F)F)cc3F)c[nH]2)CC1` [Cpd 505, N-(2,5-difluoro-4-(trifluoromethyl)phenyl)-5-(3-oxocyclopent-1-en-1-yl)-1H-pyrrole-3-sulfonamide], the negative-log IC50 (pIC50) was 4.30 to 5.30.

For `CN(C)c1ccccc1-c1cc(S(=O)(=O)Nc2ccc(C#N)cc2F)c[nH]1` [Cpd 506, N-(4-cyano-2-fluorophenyl)-5-[2-(dimethylamino)phenyl]-1H-pyrrole-3-sulfonamide], the pIC50 was 5.30 to 6.30.

Turning to `N#Cc1ccc(NS(=O)(=O)c2c[nH]c(-c3cc(Cl)c(F)cc3F)c2)c(F)c1` [Cpd 507, 5-(5-chloro-2,4-difluorophenyl)-N-(4-cyano-2-fluorophenyl)-1H-pyrrole-3-sulfonamide], the pIC50 is 5.30 to 6.30.

Turning to `N#Cc1cc(F)c(NS(=O)(=O)c2c[nH]c(-c3cc(Cl)ccc3F)c2)cc1F` [Cpd 508, 5-(5-chloro-2-fluorophenyl)-N-(4-cyano-2,5-difluorophenyl)-1H-pyrrole-3-sulfonamide], the pIC50 is over 6.30.

Turning to `N#Cc1cc(F)c(NS(=O)(=O)c2c[nH]c(-c3ccc(F)cc3)c2)cc1F` [Cpd 509, N-(4-cyano-2,5-difluorophenyl)-5-(4-fluorophenyl)-1H-pyrrole-3-sulfonamide], the pIC50 was over 6.30.

For `N#Cc1cc(F)c(NS(=O)(=O)c2c[nH]c(-c3ccc(F)cc3F)c2)cc1F` [Cpd 510, N-(4-cyano-2,5-difluorophenyl)-5-(2,4-difluorophenyl)-1H-pyrrole-3-sulfonamide], the pIC50 is over 6.30.

`Cc1cc(NS(=O)(=O)c2c[nH]c(-c3ccccc3F)c2)c(F)cc1C#N` [Cpd 511, N-(4-cyano-2-fluoro-5-methylphenyl)-5-(2-fluorophenyl)-1H-pyrrole-3-sulfonamide]: the pIC50 was over 6.30.

For `Cc1cc(NS(=O)(=O)c2c[nH]c(-c3cc(Cl)ccc3F)c2)c(F)cc1C#N` [Cpd 512, 5-(5-chloro-2-fluorophenyl)-N-(4-cyano-2-fluoro-5-methylphenyl)-1H-pyrrole-3-sulfonamide], the pIC50 was over 6.30.

As for `Cc1cc(NS(=O)(=O)c2c[nH]c(-c3ccc(F)cc3)c2)c(F)cc1C#N` [Cpd 513, N-(4-cyano-2-fluoro-5-methylphenyl)-5-(4-fluorophenyl)-1H-pyrrole-3-sulfonamide], the pIC50 was 5.30 to 6.30.

In the case of `Cc1cc(NS(=O)(=O)c2c[nH]c(-c3ccc(F)cc3F)c2)c(F)cc1C#N` [Cpd 514, N-(4-cyano-2-fluoro-5-methylphenyl)-5-(2,4-difluorophenyl)-1H-pyrrole-3-sulfonamide], the pIC50 was 5.30 to 6.30.

In the case of `O=S(=O)(Nc1cc(F)c(OC(F)F)cc1F)c1c[nH]c(-c2cccc(Cl)n2)c1` [Cpd 515, 5-(6-chloropyridin-2-yl)-N-[4-(difluoromethoxy)-2,5-difluorophenyl]-1H-pyrrole-3-sulfonamide], the pIC50 was over 6.30.

`O=S(=O)(Nc1cc(F)c(OC(F)F)cc1F)c1c[nH]c(-c2cccc(Br)n2)c1` [Cpd 516, 5-(6-bromopyridin-2-yl)-N-[4-(difluoromethoxy)-2,5-difluorophenyl]-1H-pyrrole-3-sulfonamide]: the pIC50 is over 6.30.

As for `O=S(=O)(Nc1cc(F)c(C(F)(F)F)cc1F)c1c[nH]c(-c2cccc3ccoc23)c1` [Cpd 517, 5-(1-benzofuran-7-yl)-N-[2,5-difluoro-4-(trifluoromethyl)phenyl]-1H-pyrrole-3-sulfonamide], the pIC50 was 5.30 to 6.30.

As to `COc1cscc1-c1cc(S(=O)(=O)Nc2cc(F)c(C(F)(F)F)cc2F)c[nH]1` [Cpd 518, N-[2,5-difluoro-4-(trifluoromethyl)phenyl]-5-(4-methoxythiophen-3-yl)-1H-pyrrole-3-sulfonamide], the negative logarithm of the IC50 (pIC50) was 5.30 to 6.30.

Consider `O=S(=O)(Nc1cc(F)c(C(F)(F)F)cc1F)c1c[nH]c(-c2cccc3c2OCC3)c1` [Cpd 519, N-[2,5-difluoro-4-(trifluoromethyl)phenyl]-5-(2,3-dihydro-1-benzofuran-7-yl)-1H-pyrrole-3-sulfonamide], for which the pIC50 is 5.30 to 6.30.

`O=C1CCC(c2cc(S(=O)(=O)Nc3cc(F)c(C(F)(F)F)cc3F)c[nH]2)C1` (centres unmarked) [Cpd 520, N-(2,5-difluoro-4-(trifluoromethyl)phenyl)-5-(3-oxocyclopentyl)-1H-pyrrole-3-sulfonamide]: the pIC50 was 4.30 to 5.30.

Turning to `CN(C)c1cccc(-c2cc(S(=O)(=O)Nc3ccc(C#N)cc3F)c[nH]2)c1` [Cpd 521, N-(4-cyano-2-fluorophenyl)-5-[3-(dimethylamino)phenyl]-1H-pyrrole-3-sulfonamide], the pIC50 was 4.30 to 5.30.

`N#Cc1cc(F)c(NS(=O)(=O)c2c[nH]c(-c3ccccc3F)c2)cc1Cl` [Cpd 522, N-(5-chloro-4-cyano-2-fluorophenyl)-5-(2-fluorophenyl)-1H-pyrrole-3-sulfonamide]: the pIC50 was over 6.30.

Consider `N#Cc1cc(F)c(NS(=O)(=O)c2c[nH]c(-c3cc(Cl)ccc3F)c2)cc1Cl` [Cpd 523, N-(5-chloro-4-cyano-2-fluorophenyl)-5-(5-chloro-2-fluorophenyl)-1H-pyrrole-3-sulfonamide], for which the pIC50 was over 6.30.

Regarding `N#Cc1cc(F)c(NS(=O)(=O)c2c[nH]c(-c3ccc(F)cc3)c2)cc1Cl` [Cpd 524, N-(5-chloro-4-cyano-2-fluorophenyl)-5-(4-fluorophenyl)-1H-pyrrole-3-sulfonamide], the pIC50 was 5.30 to 6.30.

Turning to `N#Cc1cc(F)c(NS(=O)(=O)c2c[nH]c(-c3ccc(F)cc3F)c2)cc1Cl` [Cpd 525, N-(5-chloro-4-cyano-2-fluorophenyl)-5-(2,4-difluorophenyl)-1H-pyrrole-3-sulfonamide], the pIC50 is 5.30 to 6.30.
